Assay results published in PubChem BioAssay (NCI).
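Briefly, cells in 96-well plates were exposed to five compound concentrations for 48 h, and endpoints were estimated by linear interpolation. GI50 is the concentration that inhibits growth by half. TGI is the concentration that stops growth completely.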

Tests used:
Test in all cases: NCI-60 cell line screen, 48 h
MALME-3M melanoma = system: MALME-3M melanoma
MCF7 breast = system: MCF7 breast
HCC-2998 colon = system: HCC-2998 colon
BT-549 breast = system: BT-549 breast
MDA-MB-435 = system: MDA-MB-435
SK-MEL-28 melanoma = system: SK-MEL-28 melanoma
NCI-H522 lung = system: NCI-H522 lung
MDA-MB-231 breast = system: MDA-MB-231 breast

SMILES	GI50 (MALME-3M melanoma)	TGI (MALME-3M melanoma)	GI50 (MCF7 breast)	TGI (MCF7 breast)	GI50 (HCC-2998 colon)	TGI (HCC-2998 colon)	GI50 (BT-549 breast)	TGI (BT-549 breast)	GI50 (MDA-MB-435)	TGI (MDA-MB-435)	GI50 (SK-MEL-28 melanoma)	TGI (SK-MEL-28 melanoma)	GI50 (NCI-H522 lung)	TGI (NCI-H522 lung)	GI50 (MDA-MB-231 breast)	TGI (MDA-MB-231 breast)
Cc1ccc(NC2=CC(=O)C(=O)c3ccccc32)c(C)c1	1.76 µM	3.78 µM	0.905 µM	4.77 µM	2.54 µM	7.91 µM	2.17 µM	7.2 µM	1.79 µM	3.48 µM	3.54 µM	13.5 µM	1.52 µM	5.87 µM	3.03 µM	19.4 µM
CCOC(=O)n1c2ccccc2c(=O)n1CCO	–	> 100 µM	–	> 100 µM	–	> 100 µM	–	> 100 µM	–	–	–	> 100 µM	–	> 100 µM	–	> 100 µM
O=S(=O)(NCCCNc1nccc(-c2c(-c3cccc(F)c3)nc3occn23)n1)c1cccc2ccccc12	5.24 µM	> 100 µM	4.07 µM	> 100 µM	2.52 µM	5.74 µM	4.44 µM	> 100 µM	3.75 µM	> 100 µM	23.6 µM	> 100 µM	9.17 µM	> 100 µM	3.13 µM	> 100 µM
Cc1ccc(O)cc1Nc1ccnc2cc(-c3ccccn3)ccc12	3.59 µM	8.32 µM	2.71 µM	6.07 µM	3.89 µM	7.51 µM	4.9 µM	10.3 µM	1.98 µM	5.65 µM	3.38 µM	6.79 µM	0.931 µM	4.6 µM	1.25 µM	5.6 µM
N#Cc1cccc(C2C3=C(COC3=O)N(CCO)c3cc4c(cc32)CCC4)c1 (stereo not drawn)	0.173 µM	> 50 µM	0.0411 µM	> 50 µM	0.186 µM	> 30.4 µM	0.182 µM	5.35 µM	0.0171 µM	0.0662 µM	0.437 µM	> 50 µM	0.025 µM	1.67 µM	0.22 µM	–
CCc1c(C#N)c(SC(C(N)=O)c2ccccc2)nc(N2CCC(N)CC2)c1C#N (stereo not drawn)	14.6 µM	28.1 µM	13 µM	26.8 µM	14.1 µM	27.1 µM	13.6 µM	27.3 µM	15.4 µM	29.6 µM	14.7 µM	27.9 µM	12.9 µM	27.1 µM	14.7 µM	28 µM
CC(=O)OC1COC(Oc2c(C)c3c4c(c2O)[C@@H](C)CC[C@@H]4[C@@H](C)C[C@H]3C=C(C)C)C(O)C1O (stereo partly drawn)	13.2 µM	27.3 µM	20.7 µM	> 100 µM	15.1 µM	31.3 µM	–	–	15.4 µM	30.6 µM	23.8 µM	57.3 µM	30.5 µM	> 100 µM	–	–
c1ccc2c(c1)[O][Sn][O]2	90.9 µg/mL	> 150 µg/mL	–	–	81.5 µg/mL	> 150 µg/mL	–	–	–	–	81.8 µg/mL	> 150 µg/mL	2.03 µg/mL	8.78 µg/mL	–	–
Cc1cn2c(/C=C3/C(=O)Nc4ccc(C(=O)O)cc43)c(C)nc2s1	> 100 µM	> 100 µM	> 100 µM	> 100 µM	> 100 µM	> 100 µM	> 100 µM	> 100 µM	> 100 µM	> 100 µM	> 100 µM	> 100 µM	> 100 µM	> 100 µM	> 100 µM	> 100 µM
COc1cc(OC)c(/C=C/C(=O)c2c(N)cc(OC)cc2OC)c(OC)c1	–	–	0.395 µM	> 100 µM	1.25 µM	> 54.1 µM	31.7 µM	> 100 µM	0.0776 µM	0.514 µM	2.18 µM	> 100 µM	0.234 µM	0.901 µM	1.35 µM	> 100 µM
Nc1c(C(=O)Nc2ccccn2)sc2nc3c(cc12)CCCCCC3	1.26 µM	13.8 µM	0.179 µM	10.2 µM	1.61 µM	33.1 µM	0.524 µM	18 µM	0.143 µM	0.509 µM	1.63 µM	19.6 µM	1.79 µM	> 50 µM	2.5 µM	15.2 µM
CN(C)c1ccc2c(c1)OC(N)=C(C#N)C2c1ccc2c(c1)CCCN2C (stereo not drawn)	16.3 µM	58.9 µM	0.444 µM	33.4 µM	–	–	2.03 µM	13.2 µM	0.305 µM	1.28 µM	11 µM	86.3 µM	0.274 µM	1.47 µM	3.52 µM	> 100 µM
CCOC(=O)C1=C(C)N(Cc2ccc(Cl)cc2Cl)[C@]2(C#N)C(O)=C(Cl)C(Cl)=C(O)[C@]12C#N	> 100 µM	> 100 µM	39.3 µM	> 100 µM	–	–	21.1 µM	> 100 µM	> 100 µM	> 100 µM	> 100 µM	> 100 µM	42.5 µM	> 100 µM	26.7 µM	98.9 µM
O=CC(O)C(O)C(OC1OC(CO)C(O)C(O)C1O)C(O)CO (stereo not drawn) (tested in a mixture with another compound)	–	> 100 µM	–	> 100 µM	–	–	–	–	–	> 100 µM	–	> 100 µM	–	> 100 µM	–	91.5 µM
COc1ncc2cc1NS(=O)(=O)c1cccc(c1)C(=O)NCC1=CC=C(S1)c1ncnc3c1SC2=C3C	0.302 µM	3.09 µM	0.104 µM	1.62 µM	0.203 µM	0.574 µM	0.0855 µM	0.505 µM	0.434 µM	3.43 µM	–	–	0.467 µM	2.61 µM	0.139 µM	12.8 µM
CCC1=C(c2ccc(OC)cc2)CC[C@]2(CCNC2=O)[C@@H]1C	–	67.4 µM	–	46.7 µM	–	> 65.3 µM	–	–	–	47.2 µM	–	74.1 µM	–	56.3 µM	–	> 100 µM
O=C(Nc1ccc(Br)cc1)Nc1cccc(Br)c1	8.69 µM	> 100 µM	3.2 µM	> 100 µM	–	–	> 100 µM	> 100 µM	–	–	4.77 µM	> 100 µM	–	–	30.5 µM	> 100 µM
CCOC(=O)C1=CSC2=NC3=C(CCC/C3=C\c3cc(OC)c(OC)c(OC)c3)C(c3cc(OC)c(OC)c(OC)c3)N12 (stereo not drawn)	–	–	2.66 µM	> 100 µM	–	–	2.64 µM	> 100 µM	–	–	–	–	–	–	3.2 µM	> 100 µM
CN(C)CCS(=O)(=O)Nc1cc(-c2ccc3ncnc(Nc4ccc(F)c(Cl)c4)c3c2)cnc1Cl	0.114 µM	0.666 µM	0.292 µM	> 100 µM	1.05 µM	3.04 µM	0.24 µM	1.38 µM	0.713 µM	3.04 µM	–	–	–	–	0.37 µM	1.8 µM
O=C1C2C(C(=O)N1CC[Se][Se]CCN1C(=O)C3C(C1=O)[C@H]1C=C[C@@H]3C1)[C@H]1C=C[C@@H]2C1 (stereo partly drawn)	0.277 µM	1.08 µM	0.332 µM	4.01 µM	2.62 µM	8.92 µM	–	–	0.267 µM	0.744 µM	0.362 µM	3.02 µM	1.79 µM	4.44 µM	0.595 µM	5.48 µM
C=C(C)[C@@H]1CC[C@]2(C(=O)n3ccnc3)CC[C@]3(C)[C@H](CC[C@@H]4[C@@]5(C)CCCNC(C)(C)[C@@H]5CC[C@]43C)[C@@H]12	1.31 µM	2.86 µM	1.5 µM	3.23 µM	1.64 µM	3.2 µM	–	–	–	–	1.61 µM	3.1 µM	1.91 µM	3.71 µM	1.78 µM	3.3 µM
Cc1ccc(-c2nc(C(Cl)Cl)nc3cc(C)nn23)cc1	–	–	1.97 µM	> 100 µM	1.18 µM	2.59 µM	9.68 µM	> 100 µM	–	–	–	–	2.14 µM	> 100 µM	2.34 µM	> 100 µM
NC(=O)C(=O)Cc1nc2ccccc2s1	–	> 100 µM	–	–	–	> 100 µM	–	–	–	–	–	> 100 µM	–	> 100 µM	–	–
CCOc1ccc(/C=C2/C(=O)N=C(N)N=C2N)cc1OCC	–	> 100 µM	–	–	–	> 100 µM	–	–	–	–	–	> 100 µM	–	> 100 µM	–	–
CCN(CC)CCCNc1c2ccc(Cl)cc2nc2ccc(OC)cc12	1.6 µM	3.38 µM	0.0377 µM	3.16 µM	–	–	1.78 µM	3.63 µM	0.0614 µM	2.04 µM	–	–	–	–	–	–
Cc1ccc(NC(=O)c2ccc(NC3=C(Cl)C(=O)N(Cc4ccccc4)C3=O)cc2)cc1Cl	–	–	3.3 µM	15.4 µM	2.36 µM	14.2 µM	1.04 µM	5.09 µM	24 µM	> 100 µM	24.2 µM	> 100 µM	3.73 µM	20.5 µM	1.35 µM	11.9 µM
O=C1c2ccccc2-c2c1c1ccc([N+](=O)[O-])cc1c(=O)n2CCCCl	–	–	1.12 µM	> 100 µM	–	–	13.3 µM	> 100 µM	31.7 µM	> 100 µM	17 µM	> 100 µM	86.8 µM	> 100 µM	11.3 µM	57.7 µM
